Assay results as given in paper PMC6151961 (Journal of Enzyme Inhibition and Medicinal Chemistry, 2018).
Read-outs that look alike come from different tables or passages of the source.

Tests used:
[1] = target: T1, CA IX (Homo sapiens, UniProt Q16790); conditions: cited from earlier work
[2] = target: T1, CA IX; assay: biochemical
[3] = RP-LC chromatographic lipophilicity (logkw); assay type: physicochemical; conditions: chromatographic lipophilicity from gradient RP-LC, Luna RP-C18, water/acetonitrile with 0.1% formic acid, 30 °C
[4] = read-out: pKi (exp.) (converted)
[5] = library compounds with IDs A… and B…, observed Ki, ref ChEMBL, BindingDB, read-out: Ki
[6] = library compounds with IDs A… and B…, from observed Ki (nM), read-out: pKi (exp.) (converted)
[7] = observed Ki of library compounds (IDs A…, B…), ref ChEMBL and BindingDB, read-out: Ki
[8] = experimental value from the library Ki (IDs A…, B…), values equal log10 of Ki in nM, read-out: pKi (exp.) (converted)
[9] = experimental value used for the QSPR model, library compounds (IDs A…, B…), equals log10 of Ki in nM, read-out: pKi (exp.) (converted)

Nc1nc(=O)[nH]c2c1c(-c1ccc(Br)cc1)cn2-c1ccc(S(N)(=O)=O)cc1 [B0312]
Ki ([1]; read-out: Ki): 24 nM | Ki [2, 4]: 24 nM

NS(=O)(=O)c1ccc(NC(=S)Nc2ccc(C3c4ccc(O)cc4Oc4cc(O)ccc43)c(C(=O)O)c2)c(Cl)c1 [B0381]
Ki [1, 5]: 32 nM | Ki [2, 6]: 32 nM

NOS(=O)(=O)N[C@H]1C=C[C@H](O)CO1 [A1544]
Ki ([1]; read-out: Ki): 91 nM | Ki [2, 4]: 91 nM

C/C(=N/Nc1ccc(S(N)(=O)=O)cc1)c1cc2cc(Br)ccc2oc1=O [B0309]
Ki ([1]; read-out: Ki): 24 nM | Ki [2, 4]: 24 nM

Oc1cc(O)c2c(c1)O[C@@H](c1ccc(O)c(O)c1)[C@H](O)C2 [B0819]
Ki [1, 5]: 5030 nM | Ki [2, 6]: 5040 nM

Cc1ncc(-c2ccc(S(N)(=O)=O)s2)o1 [B0222]
Ki [1, 7]: 11 nM | Ki [2, 8]: 11 nM

Cc1cc(S(=O)(=O)NC(=N)Nc2nnc(S(N)(=O)=O)s2)c(SCc2ccccc2)cc1Cl [C99]
logkw [3]: 4.070

Cc1cc(S(=O)(=O)NC(=N)NNc2ccc(S(N)(=O)=O)cc2)c(SCc2ccccc2)cc1Cl [C97]
logkw [3]: 4.090

C[C@@H](Sc1nc(-c2ccc(Cl)c(F)c2)c(C#N)c(=O)[nH]1)C(=O)Nc1ccc(S(N)(=O)=O)cc1 [A1157]
Ki [1, 7]: 37 nM | Ki [2, 8]: 37 nM

C[C@H](Nc1nc(NCc2ccc(S(N)(=O)=O)cc2)nc(N[C@H](C)C(=O)O)n1)C(=O)O [A0552]
Ki ([1]; read-out: Ki): 8.5 nM | Ki [2, 4]: 8.49 nM

Cc1cc(S(=O)(=O)NC(=N)Nc2ccc(S(N)(=O)=O)cc2)c(SCc2cc3c(cc2Cl)OCO3)cc1Cl [C120]
logkw [3]: 4.070

COC(=O)[C@@H]1O[C@H](S(N)(=O)=O)[C@@H](OC(C)=O)[C@H](OC(C)=O)[C@@H]1OC(C)=O [B0808]
Ki [1, 7]: 4150 nM | Ki [2, 9]: 4150 nM

COc1ccc2c(c1)CCN(S(N)(=O)=O)[C@@H]2c1ccc(N)cc1 [B0230]
Ki [1, 5]: 12 nM | Ki [2, 6]: 12 nM

COc1cccc(/C=C\C(=O)C[C@@H]2O[C@@H](COC(C)=O)[C@@H](OC(C)=O)[C@@H](OC(C)=O)[C@H]2OC(C)=O)c1 [B0574]
Ki [1, 5]: 93 nM | Ki [2, 6]: 92.9 nM

NS(=O)(=O)c1ccc(C(=O)NNC(=O)Nc2ccc([C@]34C[C@H]5C[C@H](C[C@H](C5)C3)C4)cc2)cc1 [A0952]
Ki ([1]; read-out: Ki): 24 nM | Ki [2, 4]: 24 nM

CN1N[C@@H](S(N)(=O)=O)S[C@H]1NC(=O)CCSSCCC(=O)/N=c1\sc(S(N)(=O)=O)nn1C [A0620]
Ki [1, 7]: 9.3 nM | Ki [2, 8]: 9.29 nM

Cc1ccc2c(c1)/C(=N/c1ccc(NC(=O)Nc3ccc(S(N)(=O)=O)cc3)cc1)C(=O)N2 [B0270]
Ki [1, 7]: 17 nM | Ki [2, 9]: 17 nM

CC(=O)[C@H]1NN(c2ccccc2)[C@H]([C@H](C#N)C(=O)Nc2ccc(S(N)(=O)=O)cc2)S1 [A0013]
Ki [1, 7]: 0.33 nM | Ki [2, 8]: 0.33 nM

COC(=O)C(=O)[C@H]1C(=O)Nc2ccccc21 [B0865]
Ki [1, 7]: 8020 nM | Ki [2, 9]: 8020 nM

Cc1cc(S(=O)(=O)NC(=N)Nc2ccc(S(N)(=O)=O)cc2)c(SCc2cccc3ccccc23)cc1Cl [C111]
logkw [3]: 3.900

NS(=O)(=O)OC[C@H]1O[C@H](O)[C@H](O)[C@@H](O)[C@H]1O [A1346]
Ki [1, 7]: 62 nM | Ki [2, 8]: 61.9 nM

NS(=O)(=O)c1ccc(-n2cc(/C=N/Nc3nc(-c4cc5cc(Br)ccc5oc4=O)cs3)c(-c3ccccc3)n2)cc1 [B0298]
Ki ([1]; read-out: Ki): 22 nM | Ki [2, 4]: 22 nM

Cc1cc(S(=O)(=O)NC(=N)NCc2ccc(S(N)(=O)=O)cc2)c(SCc2cc3c(cc2Cl)OCO3)cc1Cl [C123]
logkw [3]: 3.850

CC1=CC(C)C=C(C)N1Cc1ccc(S(N)(=O)=O)cc1 [B0412]
Ki [1, 7]: 38 nM | Ki [2, 8]: 38 nM

NS(=O)(=O)c1ccc(-n2cc(/C=N/Nc3nc(-c4cc5cc(Cl)ccc5oc4=O)cs3)c(-c3ccc(F)cc3)n2)cc1 [B0019]
Ki [1, 7]: 2.5 nM | Ki [2, 8]: 2.5 nM

NS(=O)(=O)c1ccc(-n2cc(CO[C@H]3O[C@@H](CO)[C@H](O)[C@H](O)[C@@H]3O)nn2)cc1 [B0594]
Ki ([1]; read-out: Ki): 101 nM | Ki [2, 4]: 101 nM

Cc1cc(S(=O)(=O)NC(=N)Nc2ccc(S(N)(=O)=O)cc2)c(SCc2ccc(C(F)(F)F)cc2)cc1Cl [C105]
logkw [3]: 4.550

Cc1cc(S(=O)(=O)NC(=N)Nc2cccc(S(N)(=O)=O)c2)c(SCc2cc3c(cc2Cl)OCO3)cc1Cl [C121]
logkw [3]: 3.990

Cc1cc(S(=O)(=O)NC(=N)Nc2nnc(S(N)(=O)=O)s2)c(SCc2cccc(C(F)(F)F)c2)cc1Cl [C104]
logkw [3]: 4.600

Cc1cccc(/C=N/CCc2ccc(S(N)(=O)=O)cc2)c1O [B0709]
Ki ([1]; read-out: Ki): 295 nM | Ki [2, 4]: 295 nM

NS(=O)(=O)c1ccc(C(=O)OCc2cn([C@@H]3O[C@H](CO)[C@@H](O)[C@@H](O)[C@@H]3O)nn2)cc1 [B0491]
Ki ([1]; read-out: Ki): 65 nM | Ki [2, 4]: 65 nM

Cc1cc(S(=O)(=O)NC(=N)Nc2cccc(S(N)(=O)=O)c2)c(SCc2ccc(C(F)(F)F)cc2)cc1Cl [C106]
logkw [3]: 4.540

Cc1cc(S(=O)(=O)NC(=N)NCc2ccc(S(N)(=O)=O)cc2)c(SCc2ccc(C(F)(F)F)cc2)cc1Cl [C109]
logkw [3]: 4.590

Cc1cc(S(=O)(=O)NC(=N)Nc2ccc(S(N)(=O)=O)cc2)c(SCc2cccc(C(F)(F)F)c2)cc1Cl [C100]
logkw [3]: 4.530

NS(=O)(=O)c1ccc(NC(=S)Nc2ccc(C3c4ccc(O)cc4Oc4cc(O)ccc43)c(C(=O)O)c2)c(F)c1 [B0365]
Ki [1, 7]: 30 nM | Ki [2, 9]: 30 nM

NS(=O)(=O)c1ccc(-n2cc(/C=N/Nc3nc(-c4cc5ccccc5oc4=O)cs3)c(-c3ccccc3)n2)cc1 [B0285]
Ki [1, 7]: 20 nM | Ki [2, 9]: 20 nM

O=C(N/N=C\c1cccc(Br)c1)Nc1nnc(S)s1 [B0891]
Ki [1, 5]: 10100 nM | Ki [2, 6]: 10100 nM

C[C@H](NC(=O)Nc1ccc(NS(N)(=O)=O)cc1)c1cccc2ccccc12 [B0045]
Ki [1, 5]: 3.4 nM | Ki [2, 6]: 3.4 nM

CC(=O)OC[C@H]1O[C@H](SCc2nnn(-c3ccc(S(N)(=O)=O)cc3)c2C#CCO)[C@@H](OC(C)=O)[C@H](OC(C)=O)[C@@H]1OC(C)=O [B0570]
Ki [1, 7]: 91 nM | Ki [2, 8]: 91 nM

CCO[C@H]1Oc2ccccc2C(=O)[C@H]1/C=N\c1ccc(S(=O)(=O)Nc2cc(C)on2)cc1 [B0311]
Ki [1, 7]: 24 nM | Ki [2, 8]: 24 nM

Cc1cc(S(=O)(=O)NC(=N)Nc2ccccc2S(N)(=O)=O)c(SCc2ccccc2)cc1Cl [C96]
logkw [3]: 4.090

C[C@]12CC[C@@H](OS(N)(=O)=O)CC1=C[C@@H](O)[C@@H]1[C@@H]2CC[C@]2(C)C(=O)CC[C@@H]12 [A1368]
Ki [1]: 65 nM | Ki [2]: 65 nM

Cc1cc(S(=O)(=O)NC(=N)Nc2cccc(S(N)(=O)=O)c2)c(SCc2cccc3ccccc23)cc1Cl [C112]
logkw [3]: 3.940

C[C@H]1O[C@@H](NS(N)(=O)=O)[C@@H](O)[C@H](O)[C@H]1O [B0772]
Ki ([1]; read-out: Ki): 900 nM | Ki [2, 4]: 899 nM

NS(=O)(=O)c1ccc(-n2nnc(CS[C@H]3O[C@H](CO)[C@@H](O)[C@@H](O)[C@H]3O)c2I)cc1 [B0123]
Ki [1, 7]: 6.5 nM | Ki [2, 9]: 6.5 nM

CN(C)C1=CCN(c2ccncc2S(N)(=O)=O)C=C1 [B0189]
Ki [1, 7]: 9 nM | Ki [2, 9]: 8.99 nM

CC(=O)OC[C@H]1O[C@H](CC(=O)/C=C\c2ccc(O)cc2)[C@@H](OC(C)=O)[C@H](OC(C)=O)[C@@H]1OC(C)=O [B0789]
Ki [1, 5]: 2900 nM | Ki [2, 6]: 2900 nM

N#C[C@H]1C(COc2ccc(S(N)(=O)=O)cc2)=NON1O [A0707]
Ki [1, 5]: 11.3 nM | Ki [2, 6]: 11.3 nM

NS(=O)(=O)c1ccc(N[C@H]2SC[C@@H](c3ccc(Cl)cc3Cl)N2C2CCCCC2)cc1 [B0713]
Ki [1, 7]: 342 nM | Ki [2, 9]: 342 nM

NS(=O)(=O)c1ccc(C(=O)NCc2cn([C@H]3O[C@@H](CO)[C@H](O)[C@@H](O)[C@@H]3O)nn2)cc1 [B0735]
Ki ([1]; read-out: Ki): 442 nM | Ki [2, 4]: 442 nM

NOS(=O)(=O)N[C@H]1C=C[C@H](O)[C@@H](CO)O1 [A1502]
Ki [1, 7]: 85 nM | Ki [2, 8]: 84.9 nM

NS(=O)(=O)c1nnc(NC(=O)[C@]23C[C@H]4C[C@H](C[C@H](C4)C2)C3)s1 [A0389]
Ki ([1]; read-out: Ki): 6.4 nM | Ki [2, 4]: 6.4 nM

CCCN(CCC)S(=O)(=O)c1ccc(C(=O)N[C@H](Cc2ccccc2)C(N)=O)cc1 [B0320]
Ki ([1]; read-out: Ki): 25 nM | Ki [2, 4]: 25 nM

NS(=O)(=O)c1ccc(-c2cn([C@H]3O[C@H](CO)[C@@H](O[C@@H]4O[C@H](CO)[C@@H](O)[C@H](O)[C@@H]4O)[C@H](O)[C@@H]3O)nn2)cc1 [B0632]
Ki ([1]; read-out: Ki): 130 nM | Ki [2, 4]: 130 nM

CC(=O)O[C@@H]1O[C@@H](COS(N)(=O)=O)[C@H](OC(C)=O)[C@@H](OC(C)=O)[C@H]1OC(C)=O [B0512]
Ki [1, 7]: 73 nM | Ki [2, 9]: 72.9 nM

CC(=O)OC[C@@H]1O[C@@H](OCc2cn(-c3ccc(S(N)(=O)=O)cc3)nn2)[C@H](OC(C)=O)[C@@H](OC(C)=O)[C@H]1OC(C)=O [B0606]
Ki ([1]; read-out: Ki): 107 nM | Ki [2, 4]: 107 nM

CC(=O)OC[C@@H]1O[C@@H](NS(N)(=O)=O)C[C@@H](OC(C)=O)[C@@H]1OC(C)=O [B0263]
Ki ([1]; read-out: Ki): 16 nM | Ki [2, 4]: 16 nM

COC(=O)[C@H]1O[C@H](SNCc2ccc(S(N)(=O)=O)cc2)[C@@H](OC(C)=O)[C@H](OC(C)=O)[C@H]1OC(C)=O [B0598]
Ki [1, 7]: 102 nM | Ki [2, 9]: 102 nM

CC(=O)/N=C1\SC(S(N)(=O)=O)=N[C@@H]1C [B0187]
Ki ([1]; read-out: Ki): 9 nM | Ki [2, 4]: 8.99 nM

COc1cc(/C=C\C(=O)OCCCCO[N+](=O)[O-])ccc1OC(=O)c1cccc(S(=O)(=O)Nc2nnc(S(N)(=O)=O)s2)c1 [B0659]
Ki ([1]; read-out: Ki): 177 nM | Ki [2, 4]: 177 nM

CCOc1ccc(S(=O)(=O)N2CCOCC2)cc1-c1nnc2c(n1)c(C)nn2C [B0310]
Ki [1, 7]: 24 nM | Ki [2, 8]: 24 nM

NS(=O)(=O)Nc1ccc(NC(=O)Nc2ccc(Cl)cc2)cc1 [A0149]
Ki [1, 7]: 3 nM | Ki [2, 9]: 3 nM

NS(=O)(=O)c1ccc(N2C(=O)/C(=C\c3coc4ccccc4c3=O)N=C2c2ccccc2)cc1 [B0301]
Ki [1, 5]: 23 nM | Ki [2, 6]: 23 nM
